Assay: Solubility of the retinoate in the carrier GRANSIL GTS
Format: physicochemical
Description: In some embodiments, a bioactive agent is a vitamin A derivative such as a retinoid. As an example, some embodiments include hydroxyanasatil retinoate, a form of all-trans retinoate sold by Concert, LLC, Memphis, Tenn., optionally in an amount of 0.1 percent by weight. This material is insoluble at this concentration in the carrier sold under the tradename GRANSIL GTS, which is a mixture of ethyl trisiloxane and polysilicone-11. […] Upon exposure to the environment for application to the skin, the carrier volatilizes allowing the crystalline retinoate to resolubilize in the solvent for increased penetration of the skin.

solubility in carrier GRANSIL GTS (0.1 percent by weight in ethyl trisiloxane and polysilicone-11): insoluble
SMILES: COc1ccc(C(=O)COC(=O)\C=C(C)/C=C/C=C(C)/C=C/C2=C(C)CCCC2(C)C)cc1 [hydroxyanasatil retinoate]
state in carrier GRANSIL GTS with non-volatile solvent (0.1 percent by weight, dimethyl isosorbide added at 0.8%): mixed state of solubilized material and crystalline material
